Assay results taken from paper PMC3154333, “Specificity of RSG-1.2 Peptide Binding to RRE-IIB RNA Element of HIV-1 over Rev Peptide Is Mainly Enthalpic in Origin” (PLoS ONE, 2011).
Where “and” joins values, the source holds several entries; their conditions need not be identical. Identical values can stand only once. Entries after “also recorded” stand apart in the source; their conditions may differ.

Key:
[1] = tested on: RRE-IIB RNA; experiment: Isothermal titration calorimetry (ITC) of peptide binding to RRE-IIB; parameters: species or system HIV-1; details: for N1 / N2: ITC stoichiometry; for N1 / ΔH1 (binding enthalpy ΔH) / TΔS1: first site; for N1 / N2 / ΔH1 (binding enthalpy ΔH) / Ka2 / TΔS2 / ΔH2 / TΔS1: two-site model; for N2 / Ka2 / TΔS2 / ΔH2: second (low affinity) site; for ΔH1 (binding enthalpy ΔH): 350 µM peptide into 10 µM RRE-IIB, corrected for heat of dilution, pH 7.5, 50 mM NaCl; for Ka1 / TΔS1: RSG-1.2 mutants; for Ka1: high affinity site, model for two set of binding sites, 10 mM sodium cacodylate, 0.1 mM EDTA, 50 mM NaCl, ± = SD of data from fitted curve; for TΔS1: derived from fits of ITC profiles
Experimental: (§1) Fluorescence labeled RNA having 2-Aminopurine (2-AP) at U72 position of RRE-IIB was obtained from Ocimum Biosolutions Ltd. Netherlands. All the stock solutions were prepared in Milli-Q water. Other reagents were commercially available and were of analytical grade quality and used without any further purification. All the experiments were performed using 10 mM sodium cacodylate buffer containing 0.1 mM EDTA and 50 mM NaCl at pH 7.5.
(§2) Isothermal titration calorimetry measurements were conducted at 25°C on a Microcal VP-ITC (Microcal, Inc.; Northampton MA). Titration of RRE-IIB with Rev as well as RSG-1.2 were done by injecting 4 µL aliquots of 350 µM peptide from a 250 µL rotating syringe (350 rpm) into an isothermal sample chamber containing 1.5 mL of 10 µM RRE-IIB solution. Each experiment of this type was accompanied by the corresponding control experiment in which 350 µM peptide were injected into a solution of buffer alone. The duration of each injection was 8 s and the delay between the injections was 300 s, the initial delay prior to the first injection was 200 s. Each injection generated a heat burst curve (microcalories/second vs. seconds) and the area under each curve was determined by integration [using origin version 7.0 software (Microcal, Inc.; Northampton, MA)] to obtain the measure of heat associated with that injection. The buffer corrected ITC profiles for the binding of Rev and RSG-1.2 were fit with a model for two set of binding site. The net enthalpy change for RRE-IIB stem loop interaction with Rev and RSG-1.2 were determined by subtraction of the heat of dilution.

[2] = tested on: 2-AP labeled RRE-IIB RNA; experiment: Fluorescence titration of 2-AP labeled RRE-IIB with peptides; assay type: binding, HIV-1; details: pH 7.5, 25°C
Experimental: as §1
Steady state fluorescence spectra were collected using Xe 900 lamp of Edinburgh instruments Spectrofluorometer equipped with thermoelectrically controlled cell holders. The excitation of the sample was done at 320 nm wavelength and fluorescence spectra were collected from 340 nm to 450 nm. The excitation as well as emission slit width were kept at 3 nm. A quartz cell of 1 cm path length, transparent from four sides, was used. All the experiments were conducted at 25°C. RNA concentration was fixed at 0.1 µM and the peptide concentration was varied from 0–0.3 µM. The buffer solution contained 10 mM sodium cacodylate buffer, 0.1 mM EDTA and 50 mM NaCl at pH 7.5 and 25°C. The changes in the fluorescence intensity at 370 nm were monitored as a function of increase in peptide concentration. For data analysis, the observed fluorescence intensity was considered as the sum of the weighted contributions from a peptide bound and an unbound RNA form. [drawing 1] (1)
Where F corresponds to the observed fluorescence intensity at each titrant concentration, F0 and Fb are the respective fluorescence intensities of initial and final states of titration, α is the mole fractions of RNA in bound form. Assuming 1∶1 stoichiometry for the interaction, it can be shown that: [drawing 2] (2)
Where Ka is the association constant, [R0] is the total RNA concentration and [Lt] is the added peptide concentration. From Equations (1) and (2), it can be shown that: [drawing 3] (3)
Where ΔF = F – F0 and ΔFmax = Fmax – F0
The free energy of binding was calculated from the standard relation ΔG = -RTlnKa where R is the universal gas constant and T is the absolute temperature in Kelvin.
Fluorescence spectroscopy is a useful tool for determining binding constants of two interacting partners. We employed this tool for determining binding affinity of Rev and RSG-1.2 with the RRE-IIB RNA stem loop structure. In order to carry out fluorescence titration, RRE-IIB RNA was fluorescently labeled by incorporating 2-Aminopurine (2-AP) at position U72. […] All the fluorescence titrations were performed using 10 mM sodium cacodylate buffer containing 0.1 mM EDTA and 50 mM NaCl at pH 7.5 and at 25°C. […] Normalized change in fluorescence intensity at 370 nm was plotted against molar concentration of peptide. […]

[3] = tested on: RRE-IIB RNA; experiment: Temperature dependent UV melting of RRE-IIB with peptides; assay type: binding, HIV-1; details: pH 7.5
Experimental: Temperature dependent UV melting experiments were carried out using a Cary 100 (Varian) Spectrophotometer equipped with thermoelectrically controlled cell holder. A quartz cell of 1cm path length was used for all absorbance studies. Temperature dependent absorption spectra were obtained at 260 nm with rate of 0.5°C/min. increase in temperature, from 40 to 95°C. In these experiments the concentration of RNA was kept 1 µM and peptide concentration was increased from 0–3 µM. The buffer solution contained 10 mM sodium cacodylate buffer, 0.1 mM EDTA and 50 mM NaCl at pH 7.5. For each optically detected transition, the melting temperature (Tm) was determined using previously described methods.

[4] = tested on: RRE-IIB RNA; experiment: CD spectroscopy of RRE-IIB with peptides; assay type: binding, HIV-1; details: 5 µM RNA, pH 7.5, 25°C
Experimental: Circular dichroism (CD) spectra were recorded on a Jasco spectropolarimeter (model J815, Japan) equipped with a thermoelectrically controlled cell holder. The cuvette used for acquiring spectra was of 1 cm in path length. CD spectra were recorded from 350 nm to 200 nm; with accumulation of 3 and averaged at 25°C. The buffer solution contained 10 mM sodium cacodylate buffer, 0.1 mM EDTA and 50 mM NaCl at pH 7.5. In a titration experiment RNA concentration was fixed at 5 µM and the peptides concentration varied from 0–25 µM.

[5] = tested on: RRE-IIB RNA; experiment: Temperature dependent ITC (heat capacity change); assay type: binding, HIV-1; details: ITC at 10, 20, 25 and 35°C, pH 7.5
Experimental: as §2
Heat capacity changes (ΔCp), that accompany the peptide binding to RNA can be determined by performing temperature dependent ITC experiments under same buffer conditions. […]

Sequence	N1 ([1]; pH 7.5, 25°C)	N2 ([1]; pH 7.5, 25°C)	ΔH1 (binding enthalpy ΔH) ([1]; ITC, 25°C)	Ka1 ([1]; ITC, pH 7.5, 25°C) [M^−1 × 10^7]	Ka2 ([1]; ITC, pH 7.5, 25°C) [M^−1 × 10^5]	TΔS2 ([1]; ITC, pH 7.5, 25°C) [kcal/mol]	ΔH2 ([1]; ITC, pH 7.5, 25°C) [kcal/mol]	TΔS1 ([1]; pH 7.5, 25°C) [kcal/mol]	further results
DRRRRGSRPSGAERKRRRAAAA [R15K]	1.6	1.6	-8.7 ± 0.1 kcal/mol	2.4±0.7	7.0±0.2	5.5 ± 0.1	-2.4 ± 0.3	1.3 ± 0.2	–
DRRRRGSRPSGAERRDRRAAAA [R15D]	1.5	1.5	-3.9 ± 0.1 kcal/mol	2.9±0.4	14.2±0.2	7.3 ± 0.4	-1.0 ± 0.1	6.2 ± 0.3	–
DTRQARRNRRRRWRERQRAAAAR [Rev, minimal arginine rich Rev peptide of HIV-1 ([…])]	–	–	≈ 0 kcal/mol and 0 kcal/mol	–	–	–	–	–	change in fluorescence intensity of 2-AP RRE-IIB ([2]; 0.1 µM RNA, 370 nm): fluorescence intensity increased upon addition of peptide; association constant Ka ([2]; 2-AP at U72, 0.1 µM RNA, 370 nm, 10 mM sodium cacodylate, 0.1 mM EDTA, 50 mM NaCl, fit with equation 3 (1∶1)): 3.1±0.4×10^7 M^−1; Ka1 ([2]; fluorescence binding studies (footnote b), 2-AP at U72, 0.1 µM RNA, peptide 0–0.3 µM, ex 320 nm/em 370 nm, 10 mM sodium cacodylate, 0.1 mM EDTA, 50 mM NaCl, 1∶1 fit): 3.1±0.4 ^b M^−1 × 10^7; ΔG (Gibb's free energy of binding) ([2]; ΔG = -RTlnKa, fluorescence Ka): -10.2 ± 0.1 kcal/mol; heat changes / enthalpy of binding (in words) ([1]; ITC, 25°C, pH 7.5): small; also recorded: almost zero enthalpy of interaction; also recorded: negligible enthalpy; TΔS1 (TΔS) ([1]; calculated by ΔG = ΔH − TΔS from fluorescence Ka and ITC ΔH (footnote c), pH 7.5, 25°C): 10.2±0.2 kcal/mol and 10.2±0.2 ^c kcal/mol; TΔS ([1]; calculated by ΔG = ΔH − TΔS, 25°C, pH 7.5): 10.2 ± 0.2 kcal/mol; thermodynamic driving force ([1]; from ΔH and TΔS, 25°C, pH 7.5): essentially entropically driven; also recorded: exclusively entropy driven; ΔTm (increase in Tm of RRE-IIB; Tm of RNA alone 67.3°C) ([3]; peptide to RNA molar ratio 1∶1, 1 µM RNA, 260 nm, 0.5°C/min, 10 mM sodium cacodylate, 50 mM NaCl, 0.1 mM EDTA): 1 °C; change in Tm at higher peptide ratios ([3]; ratios above 1∶1 (2∶1 and 3∶1), 1 µM RNA): negligible changes were observed; CD signal of RRE-IIB at 240 nm and 210 nm ([4]; peptide 0–25 µM (up to 5∶1), 10 mM sodium cacodylate, 50 mM NaCl, 0.1 mM EDTA): became more negative at 240 nm and 210 nm; CD signal of RRE-IIB at 265 nm ([4]; up to 5∶1 peptide): no significant change was observed at 265 nm; change in heat capacity (in words) [5]: essentially no change in heat capacity; temperature dependence of binding enthalpy [5]: does not show any change in enthalpy of binding; also recorded: no change in binding enthalpy
